Results on 26 molecules are retold here after ChEMBL document CHEMBL1135110, “Structure-based design of peptidomimetic antagonists of p56(lck) SH2 domain” (Bioorg Med Chem Lett, 2002).

Non-standard residues stand in square brackets, D forms with d. Residues, ends and D or L forms follow the SMILES beside them. pY = N[C@@H](Cc1ccc(OP(=O)(O)O)cc1)C(=O)O

A word on the IC50: it is the concentration needed to halve the response being measured.

For this assay, the target named is Tyrosine-protein kinase Lck (Homo sapiens, UniProt P06239). The assay is described as follows: Inhibitory activity towards p56 Lck tyrosine kinase SH2 domain using scintillation proximity assay (SPA). On the technique in general: SPA uses beads or plates that emit light when radiolabelled molecules are held near them.
Chain of Tyrosine-protein kinase Lck (P06239 whole entry, the tested form may be a part): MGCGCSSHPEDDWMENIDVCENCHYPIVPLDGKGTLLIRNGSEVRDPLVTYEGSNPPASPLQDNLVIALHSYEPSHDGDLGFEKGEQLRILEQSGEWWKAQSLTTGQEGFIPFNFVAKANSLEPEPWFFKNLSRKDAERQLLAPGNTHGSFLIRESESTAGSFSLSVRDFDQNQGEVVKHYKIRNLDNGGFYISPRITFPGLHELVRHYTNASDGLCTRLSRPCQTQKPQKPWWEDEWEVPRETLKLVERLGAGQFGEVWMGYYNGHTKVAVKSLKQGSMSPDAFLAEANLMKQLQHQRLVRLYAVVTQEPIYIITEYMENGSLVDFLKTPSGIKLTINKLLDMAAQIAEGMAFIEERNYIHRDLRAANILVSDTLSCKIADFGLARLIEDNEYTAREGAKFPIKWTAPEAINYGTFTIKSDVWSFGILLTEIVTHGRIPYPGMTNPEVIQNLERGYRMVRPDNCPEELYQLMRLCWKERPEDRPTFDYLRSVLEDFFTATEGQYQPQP
In turn, `CC[C@H](C)[C@H](NC(=O)[C@H](CCC(=O)O)NC(=O)[C@H](CCC(=O)O)NC(=O)[C@H](Cc1ccc(OP(=O)(O)O)cc1)NC(C)=O)C(=O)NC` came in with an IC50 of 2000 nM. Molecule `CC[C@H](C)[C@H](NC(=O)[C@H](CCC(=O)O)NC(=O)[C@H](CCC(=O)O)NC(=O)[C@H](Cc1ccc(OP(=O)(O)O)cc1)NC(C)=O)C(=O)N1CCC[C@@H]1C(=O)NC` came in with an IC50 of 1600 nM. The figure for `CC(=O)N[C@@H](Cc1ccc(OP(=O)(O)O)cc1)C(=O)N[C@H]1CCC(=O)N2CCC[C@@H](C(=O)NCC3CCCCC3)N2C1=O` is 1600 nM; for `CC(=O)N[C@@H](Cc1ccc(OP(=O)(O)O)cc1)C(=O)N[C@H]1CCC(=O)N2CCC[C@@H](C(=O)NC3CCc4ccccc43)N2C1=O` (stereo partly specified) it is 1200 nM.

For `CCCCNC(=O)[C@@H]1CCCN2C(=O)CC[C@H](NC(=O)[C@H](Cc3ccc(OP(=O)(O)O)cc3)NC(C)=O)C(=O)N12`, the IC50 amounted to 1900 nM. The result for `CCCCCNC(=O)[C@@H]1CCCN2C(=O)CC[C@H](NC(=O)[C@H](Cc3ccc(OP(=O)(O)O)cc3)NC(C)=O)C(=O)N12` reads 1800 nM; that for `CC(=O)N[C@@H](Cc1ccc(OP(=O)(O)O)cc1)C(=O)N[C@H]1CCC(=O)N2CCC[C@@H](C(=O)N[C@H]3C[C@@H](C(=O)O)c4ccccc43)N2C1=O`, 2800 nM; that for `CC(=O)N[C@@H](Cc1ccc(OP(=O)(O)O)cc1)C(=O)N[C@H]1CCC(=O)N2CCC[C@@H](C(=O)N[C@H]3C[C@H](C(=O)O)c4ccccc43)N2C1=O`, 2000 nM. As to `CC(=O)N[C@@H](Cc1ccc(OP(=O)(O)O)cc1)C(=O)N[C@H]1CCC(=O)N2CCC[C@@H](C(=O)NCc3cccc4ccccc34)N2C1=O`, the IC50 worked out at 1900 nM. As to `CC(=O)N[C@@H](Cc1ccc(OP(=O)(O)O)cc1)C(=O)N[C@H]1CCC(=O)N2CCC[C@@H](C(=O)NCc3ccc(Cl)cc3)N2C1=O`, the IC50 came to 400 nM. The result for `CC[C@H](C)[C@H](NC(=O)[C@@H]1CCCN2C(=O)CC[C@H](NC(=O)[C@H](Cc3ccc(OP(=O)(O)O)cc3)NC(C)=O)C(=O)N12)C(=O)NC` reads 1600 nM. Molecule `CC(=O)N[C@@H](Cc1ccc(OP(=O)(O)O)cc1)C(=O)N[C@H]1CCC(=O)N2CCC[C@@H](C(=O)NCc3ccc(O)cc3)N2C1=O` came in with a 50% inhibitory concentration (IC50) of 10000 nM.

Molecule `CC(=O)N[C@@H](Cc1ccc(OP(=O)(O)O)cc1)C(=O)N[C@H]1CCC(=O)N2CCC[C@@H](C(=O)Nc3cccc4ccccc34)N2C1=O` had an IC50 of 1100 nM. The figure for `CC(=O)N[C@@H](Cc1ccc(OP(=O)(O)O)cc1)C(=O)N[C@H]1CCC(=O)N2CCC[C@@H](C(=O)N[C@@H]3C[C@H](C(=O)O)c4ccccc43)N2C1=O` is 30 nM; for `CC(=O)N[C@@H](Cc1ccc(OP(=O)(O)O)cc1)C(=O)N[C@H]1CCC(=O)N2CCC[C@@H](C(=O)NCC(C)(C)C)N2C1=O` it is 1800 nM. `CC(=O)N[C@@H](Cc1ccc(OP(=O)(O)O)cc1)C(=O)N[C@H]1CCC(=O)N2CCC[C@@H](C(=O)NCc3ccccc3)N2C1=O` had an IC50 of 1500 nM.

With `CCCNC(=O)[C@@H]1CCCN2C(=O)CC[C@H](NC(=O)[C@H](Cc3ccc(OP(=O)(O)O)cc3)NC(C)=O)C(=O)N12`, the IC50 worked out at 6000 nM. With `CC(=O)N[C@@H](Cc1ccc(OP(=O)(O)O)cc1)C(=O)N[C@H]1CCC(=O)N2CCC[C@@H](C(=O)N[C@@H]3C[C@@H](C(=O)O)c4ccccc43)N2C1=O`, the midpoint of inhibition, the IC50, lay at 100 nM. Turning to `CC[C@@H](C)CNC(=O)[C@@H]1CCCN2C(=O)CC[C@H](NC(=O)[C@H](Cc3ccc(OP(=O)(O)O)cc3)NC(C)=O)C(=O)N12`, it took 1200 nM to reach half-maximal inhibition (IC50). The result for `CC(=O)N[C@@H](Cc1ccc(OP(=O)(O)O)cc1)C(=O)N[C@H]1CCC(=O)N2CCC[C@@H](C(=O)NCC34CC5CC(CC(C5)C3)C4)N2C1=O` reads 1100 nM; that for `CCNC(=O)[C@@H]1CCCN2C(=O)CC[C@H](NC(=O)[C@H](Cc3ccc(OP(=O)(O)O)cc3)NC(C)=O)C(=O)N12`, 8500 nM. `CNC(=O)[C@H](CCC(=O)O)NC(=O)[C@H](CCC(=O)O)NC(=O)[C@H](Cc1ccc(OP(=O)(O)O)cc1)NC(C)=O` (Ac-[pY]-Glu-Glu-NHMe): half-maximal inhibition (IC50) was put at 17000 nM.

`CNC(=O)[C@H](CCC(=O)O)NC(=O)[C@H](Cc1ccc(OP(=O)(O)O)cc1)NC(C)=O` (Ac-[pY]-Glu-NHMe) showed an IC50 of 350000 nM. The molecule `CC[C@H](C)[C@H](NC(=O)[C@@H]1CCCN1C(=O)[C@@H](NC(=O)[C@H](CCC(=O)O)NC(=O)[C@H](CCC(=O)O)NC(=O)[C@H](Cc1ccc(OP(=O)(O)O)cc1)NC(=O)[C@H](CCC(N)=O)NC(=O)[C@@H]1CCCN1C(=O)[C@@H](N)CCC(=O)O)[C@@H](C)CC)C(=O)N[C@@H](Cc1ccc(O)cc1)C(=O)N[C@@H](CC(C)C)C(=O)O` (H-EPQ[pY]EEIPIYL-OH) displayed a concentration for half-maximal inhibition (IC50) of 360 nM. The molecule `CC(=O)N[C@@H](Cc1ccc(OP(=O)(O)O)cc1)C(=O)N[C@H]1CCC(=O)N2CCC[C@@H](C(=O)NC3CC(C(=O)O)c4ccccc43)N2C1=O` (stereo in doubt; 34) gave an IC50 of 7700 nM. The result for `CC(=O)N[C@@H](Cc1ccc(OP(=O)(O)O)cc1)C(=O)N[C@H]1CCC(=O)N2CCC[C@@H](C(=O)NC3CC(C(=O)O)c4ccccc43)N2C1=O` (stereo in doubt; 35) reads 7300 nM.
